Source: ChEMBL document CHEMBL6083259, “Discovery of quinazoline-benzothiazole derivatives as novel potent protease-activated receptor 4 antagonists with improved pharmacokinetics and low bleeding liability” (Eur J Med Chem, 2024)
The source made the active and inactive calls. The rule behind the calls is not given here.

Legend:
[1] = Protein binding in rat plasma at 10 uM incubated for 6 hrs by LC-MS/MS analysis; assay type: ADME, cell-free; details: read-out: PPB (converted)
[2] = Half-life in male Sprague-Dawley rat at 2 mg/kg, po measured after 24 hrs by LC-MS/MS analysis; assay type: ADME, organism-based; details: in vivo
[3] = test system: Plasma; assay: Inhibition of ADP-induced platelet aggregation in human platelet rich plasma at 10 uM preincubated for 5 mins followed by ADP addition and measured after 5 mins by aggregometer; assay type: functional, cell-free
[4] = test system: Plasma; assay: Inhibition of collagen-induced platelet aggregation in human platelet rich plasma at 10 uM preincubated for 5 mins followed by collagen addition and measured after 5 mins by aggregometer; assay type: functional, cell-free
[5] = Antagonist activity at […] expressed in HEK293/Galpha15 cells assessed as inhibition of 2-furoyl-LIGRLO-NH2-induced calcium mobilization incubated for 30 mins by FLIPR assay; assay type: cell-based; details: HEK293/Galpha15, 0.5 h
[6] = Clearance in male Sprague-Dawley rat at 2 mg/kg, po measured after 24 hrs by LC-MS/MS analysis; assay type: ADME, organism-based; details: in vivo
[7] = molecular target: T1, Proteinase-activated receptor 4 (Homo sapiens, UniProt Q96RI0); assay: Antagonist activity at human PAR4 expressed in HEK293/Galpha15 cells assessed as inhibition of AYPGKF-NH2-induced calcium mobilization incubated for 30 mins by FLIPR assay; assay type: functional, cell-based
T1 sequence (Q96RI0 whole entry): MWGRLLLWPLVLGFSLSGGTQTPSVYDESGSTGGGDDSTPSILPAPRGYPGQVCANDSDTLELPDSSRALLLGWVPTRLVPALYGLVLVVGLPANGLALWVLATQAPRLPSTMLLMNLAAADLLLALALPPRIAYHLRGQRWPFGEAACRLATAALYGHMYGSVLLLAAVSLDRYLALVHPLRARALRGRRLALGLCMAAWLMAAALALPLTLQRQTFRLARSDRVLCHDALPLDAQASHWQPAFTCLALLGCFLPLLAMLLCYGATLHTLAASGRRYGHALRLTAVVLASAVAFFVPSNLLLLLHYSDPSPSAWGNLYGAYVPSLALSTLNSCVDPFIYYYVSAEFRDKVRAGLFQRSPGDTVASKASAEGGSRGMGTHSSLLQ

[8] = Cytotoxicity against HEK293 cells assessed as reduction in cell viability incubated for 48 hrs by MTT assay; assay type: toxicity, cell-based; details: human
[9] = test system: Plasma; assay: Inhibition of SFFLLRN-NH2 peptide-induced platelet aggregation in human platelet rich plasma at 10 uM preincubated for 5 mins followed by peptide addition and measured after 5 mins by aggregometer; assay type: functional, cell-free
[10] = AUC (0 to last) in male Sprague-Dawley rat at 2 mg/kg, po measured after 24 hrs by LC-MS/MS analysis; assay type: ADME, organism-based; details: in vivo
[11] = Metabolic stability in rat liver microsomes assessed as half-life at 1 uM measured upto 120 mins in presence of NADPH by LC-MS/MS analysis; assay type: ADME, Microsome
[12] = AUC (0 to last) in male Sprague-Dawley rat at 0.5 mg/kg, iv measured after 24 hrs by LC-MS/MS analysis; assay type: ADME, organism-based; details: in vivo
[13] = Cmax in male Sprague-Dawley rat at 0.5 mg/kg, iv measured after 24 hrs by LC-MS/MS analysis; assay type: ADME, organism-based; details: in vivo
[14] = molecular target: T2, Proteinase-activated receptor 4 (Homo sapiens) (UniProt Q96RI0); assay: Antagonist activity at PAR4 in human platelet rich plasma assessed as inhibition of gamma-PAR4 agonist peptide (AYPGKF-NH2)-induced platelet aggregation at 200 nM preincubated for 5 mins followed by peptide addition and measured after 5 mins by aggregometer relative to control; assay type: cell-based; details: filed as antagonist, time 10.0 min
T2 sequence (whole entry): T1 sequence (Q96RI0 whole entry)

[15] = molecular target: T3, Proteinase-activated receptor 1 (Homo sapiens, UniProt P25116); assay: Antagonist activity at human PAR1 expressed in HEK293/Galpha15 cells assessed as inhibition of SFFLRR-NH2-induced calcium mobilization incubated for 30 mins by FLIPR assay; assay type: functional, cell-based
T3 sequence (P25116 whole entry): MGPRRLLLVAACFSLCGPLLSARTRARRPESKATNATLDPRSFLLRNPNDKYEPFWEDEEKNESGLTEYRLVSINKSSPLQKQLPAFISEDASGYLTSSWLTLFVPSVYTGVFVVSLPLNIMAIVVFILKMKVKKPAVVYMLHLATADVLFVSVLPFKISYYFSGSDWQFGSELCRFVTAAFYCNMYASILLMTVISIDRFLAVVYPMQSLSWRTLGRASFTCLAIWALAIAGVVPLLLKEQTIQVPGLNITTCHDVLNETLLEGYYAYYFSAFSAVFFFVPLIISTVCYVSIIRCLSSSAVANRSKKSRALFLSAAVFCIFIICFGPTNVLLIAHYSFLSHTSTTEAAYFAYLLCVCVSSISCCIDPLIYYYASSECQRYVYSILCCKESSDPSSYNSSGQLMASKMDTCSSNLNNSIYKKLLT

[16] = Protein binding in human plasma at 10 uM incubated for 6 hrs by LC-MS/MS analysis; assay type: ADME, cell-free; details: read-out: PPB (converted)
[17] = Metabolic stability in human liver microsomes assessed as half-life at 1 uM measured upto 120 mins in presence of NADPH by LC-MS/MS analysis; assay type: ADME, Microsome
[18] = test system: Plasma; assay: Inhibition of thrombin-induced platelet aggregation in human platelet rich plasma at 10 uM preincubated for 5 mins followed by thrombin addition and measured after 5 mins by aggregometer; assay type: functional, cell-free; details: time 10.0 min
[19] = Half-life in male Sprague-Dawley rat at 0.5 mg/kg, iv measured after 24 hrs by LC-MS/MS analysis; assay type: ADME, organism-based; details: in vivo
[20] = test system: Plasma; assay: Inhibition of […] peptide-induced platelet aggregation in human platelet rich plasma at 10 uM preincubated for 5 mins followed by peptide addition and measured after 5 mins by aggregometer; assay type: functional, cell-free; details: time 10.0 min
[21] = Clearance in male Sprague-Dawley rat at 0.5 mg/kg, iv measured after 24 hrs by LC-MS/MS analysis; assay type: ADME, organism-based; details: in vivo
[22] = Tmax in male Sprague-Dawley rat at 0.5 mg/kg, iv measured after 24 hrs by LC-MS/MS analysis; assay type: ADME, organism-based; details: in vivo
[23] = test system: Plasma; assay: Inhibition of U46619-induced platelet aggregation in human platelet rich plasma at 10 uM preincubated for 5 mins followed by U46619 addition and measured after 5 mins by aggregometer; assay type: functional, cell-free
[24] = Tmax in male Sprague-Dawley rat at 2 mg/kg, po measured after 24 hrs by LC-MS/MS analysis; assay type: ADME, organism-based; details: in vivo
[25] = Cmax in male Sprague-Dawley rat at 2 mg/kg, po measured after 24 hrs by LC-MS/MS analysis; assay type: ADME, organism-based; details: in vivo
[26] = Oral bioavailability in male Sprague-Dawley rat at 2 mg/kg measured after 24 hrs by LC-MS/MS analysis; assay type: ADME, organism-based; details: in vivo
[27] = Toxicity in male C57BL/6 mouse assessed as prolongation of bleeding time at 10 mg/kg, po measured after 1.5 hrs by tail bleeding assay; assay type: organism-based; details: in vivo
[28] = AUC (0 to last) in iv dosed male Sprague-Dawley rat measured after 24 hrs by LC-MS/MS analysis; assay type: ADME, organism-based; details: in vivo
[29] = AUC (0 to last) in po dosed male Sprague-Dawley rat measured after 24 hrs by LC-MS/MS analysis; assay type: ADME, organism-based; details: in vivo
[30] = Tmax in iv dosed male Sprague-Dawley rat measured after 24 hrs by LC-MS/MS analysis; assay type: ADME, organism-based; details: in vivo
[31] = Oral bioavailability in male Sprague-Dawley rat measured after 24 hrs by LC-MS/MS analysis; assay type: ADME, organism-based; details: in vivo
[32] = Half-life in iv dosed male Sprague-Dawley rat measured after 24 hrs by LC-MS/MS analysis; assay type: ADME, organism-based; details: in vivo
[33] = Antagonist activity at PAR4 in mouse washed platelets assessed as inhibition of gamma-PAR4 agonist peptide (AYPGKF-NH2)-induced platelet aggregation preincubated for 5 mins followed by peptide addition and measured after 5 mins by aggregometer
[34] = Cmax in po dosed male Sprague-Dawley rat measured after 24 hrs by LC-MS/MS analysis; assay type: ADME, organism-based; details: in vivo
[35] = Half-life in po dosed male Sprague-Dawley rat measured after 24 hrs by LC-MS/MS analysis; assay type: ADME, organism-based; details: in vivo
[36] = Tmax in po dosed male Sprague-Dawley rat measured after 24 hrs by LC-MS/MS analysis; assay type: ADME, organism-based; details: in vivo
[37] = Cmax in iv dosed male Sprague-Dawley rat measured after 24 hrs by LC-MS/MS analysis; assay type: ADME, organism-based; details: in vivo
[38] = Clearance in iv dosed male Sprague-Dawley rat measured after 24 hrs by LC-MS/MS analysis; assay type: ADME, organism-based; details: in vivo

With COCc1ncc2c(-c3nc4cc(F)c(OCCOC(=O)Nc5cc(F)cc(C#N)c5)cc4s3)cc(C)cc2n1 the fraction unbound at 6 h, 10 µM [1] was 0.0011, the half-life [2] was 107 min and the IC50 [3] was > 10 µM. For the same molecule, the IC50 [4] was > 10 µM, the IC50 [5] was > 1000 nM and the CL/F [6] was 65.3 mL/min/kg. For the same molecule, the IC50 [7] was 5.6 nM, the IC50 at 48 h [8] was > 20 µM and the IC50 [9] was > 10 µM. The AUC(0-t) at 24 h [10] was 488 ng·h/mL, the half-life at 1 µM [11] was 127 min and the AUC(0-t) at 24 h [12] was 950 ng·h/mL. For the same molecule, the Cmax [13] was 944 ng/mL, the inhibition [14] was 90.3% and the IC50 [15] was > 3.16 µM. The fraction unbound at 6 h, 10 µM [16] was 0.001, the half-life at 1 µM [17] was 44.8 min and the inhibition [18] was “Active”. For the same molecule, the half-life [19] was 132 min, the inhibition [20] was “Active” and the clearance [21] was 9.5 mL/min/kg. For the same molecule, the Tmax [22] was 4.8 min, the IC50 [23] was > 10 µM and the Tmax [24] was 1 h. For the same molecule, the Cmax [25] was 146 ng/mL and the bioavailability [26] was 13.2%.
With COc1ncc2c(-c3nc4cc(F)c5c(c4s3)C[C@H](COC(=O)Nc3cccc(C#N)c3)O5)cc(C)cc2n1 the fraction unbound at 6 h, 10 µM [1] was 0.0002, the half-life [2] was 310 min and the IC50 [3] was > 10 µM. For the same molecule, the IC50 [4] was > 10 µM, the IC50 [5] was > 1000 nM and the CL/F [6] was 25.4 mL/min/kg. For the same molecule, the IC50 [7] was 1.72 nM, the IC50 at 48 h [8] was > 20 µM and the IC50 [9] was > 10 µM. The AUC(0-t) at 24 h [10] was 1220 ng·h/mL, the Activity [27] was “Non-toxic” and the half-life at 1 µM [11] was 89.6 min. The AUC(0-t) at 24 h [12] was 636 ng·h/mL, the Cmax [13] was 394 ng/mL and the inhibition [14] was 91.2%. The IC50 [15] was > 3.16 µM, the fraction unbound at 6 h, 10 µM [16] was 0.0005 and the half-life at 1 µM [17] was 250 min. The inhibition [18] was “Active”, the half-life [19] was 308 min and the inhibition [20] was “Active”. For the same molecule, the clearance [21] was 12.8 mL/min/kg, the Tmax [22] was 4.8 min and the IC50 [23] was > 10 µM. For the same molecule, the Tmax [24] was 1.67 h, the Cmax [25] was 214 ng/mL and the bioavailability [26] was 50.5%.
With COc1ncc2c(-c3nc4cc(F)c5c(c4s3)C[C@H](COC(=O)Nc3cc(F)cc(C#N)c3)O5)cc(C)cc2n1 the fraction unbound at 6 h, 10 µM [1] was 0.0001, the half-life [2] was 423 min and the IC50 [3] was > 10 µM. The IC50 [4] was > 10 µM, the IC50 [5] was > 1000 nM and the CL/F [6] was 37.7 mL/min/kg. The IC50 [7] was 0.96 nM, the IC50 at 48 h [8] was > 20 µM and the IC50 [9] was > 10 µM. The AUC(0-t) at 24 h [10] was 865 ng·h/mL, the Activity [27] was “Non-toxic” and the half-life at 1 µM [11] was 104 min. For the same molecule, the AUC(0-t) at 24 h [12] was 808 ng·h/mL, the Cmax [13] was 519 ng/mL and the inhibition [14] was 94.7%. The IC50 [15] was > 3.16 µM, the fraction unbound at 6 h, 10 µM [16] was 0.0004 and the half-life at 1 µM [17] was 283 min. For the same molecule, the inhibition [18] was “Active”, the half-life [19] was 413 min and the inhibition [20] was “Active”. The clearance [21] was 9.8 mL/min/kg, the Tmax [22] was 4.8 min and the IC50 [23] was > 10 µM. The Tmax [24] was 1 h, the Cmax [25] was 170 ng/mL and the bioavailability [26] was 27.3%.
In the case of COc1cc(Cl)c2nc(-c3cc(C)cc4c(=O)n(C)cnc34)sc2c1, the AUC(0-t) at 24 h [28] is reported as 288 ng·h/mL, the AUC(0-t) at 24 h [29] is reported as 32 ng·h/mL and the IC50 [5] is reported as > 1000 nM. For the same molecule, the Tmax [30] was 4.8 min, the bioavailability [31] was 3.71% and the IC50 at 48 h [8] was > 20 µM. The half-life [32] was 84 min, the Activity [27] was “Non-toxic” and the IC50 [33] was 84 nM. It also gave a Cmax [34] of 6.4 ng/mL, a half-life at 1 µM [11] of 31.9 min and a half-life [35] of 130 min. For the same molecule, the inhibition [14] was 94.5%, the IC50 [15] was > 3.16 µM and the Tmax [36] was 2.83 h. It also gave a half-life at 1 µM [17] of 42.6 min, a Cmax [37] of 571 ng/mL and a clearance [38] of 57.7 mL/min/kg.
